Where “and” joins values, the source holds several entries; their conditions need not be identical. Equal entries are not always repeated.
Experiments:
[1] = Plasma pharmacokinetics, bolus versus 15 hr divided dosing (Example 1); format: in vivo; settings: human
[2] = system: healthy male human subjects; experiment: Side effects by visual analogue scales and emesis (Example 1); format: in vivo
[3] = Plasma pharmacokinetics, bolus versus 7 hr divided dosing (Example 2); format: in vivo; settings: human, fasted, mean; for AUC(0-t): po, 200 mg
[4] = system: healthy male human subjects; experiment: Side effects by visual analogue scales and emesis (Example 2); format: in vivo
[5] = Pharmacokinetics of sertraline delivered to various portions of the gastrointestinal tract (Example 3); format: in vivo; settings: for AUC(0-t): human, plasma; for AUC(0-t) / AUC as percent of the AUC observed after dosing with oral tablets: 200 mg
[6] = system: healthy male human subjects; experiment: Side effect score versus plasma concentration, PK/PD (Example 6); format: in vivo
[7] = Hygroscopicity (moisture microbalance); format: physicochemical; settings: 10% to 90% humidity, 25°C
Method: A temperature of 25°C is maintained during all hygroscopicity measurements.

[8] = Accelerated chemical stability (reverse phase HPLC); settings: same accelerated stability conditions
[9] = Mechanical properties of compacts of the pure drug substance; format: physicochemical
Method: The measurements of mechanical properties can be routinely accomplished using square compacts of the pure drug substance, in this case sertraline acetate and sertraline L-lactate. The measurements are made in triplicate and the compacts are prepared by uniaxial compression and triaxial decompression.
Samples for the testing of mechanical properties are prepared according to standard procedures. To generate reliable data, such samples must be free of mechanical flaws, such as microcracks. Therefore, a specialized tablet press, prepared as described in U.S. Patent No. 4,880,373, is utilized. […] The apparent density of the compact is determined by measuring the […]. […] The true density of the powder is determined by helium pycnometry. Ordinarily, to achieve the desired solid fraction, trial compactions of carefully weighed powder samples must be performed and the solid fraction of the resultant compact is measured. […]
Dynamic indentation hardness, H0, of the compacts is measured with a pendulum impact apparatus , prepared as described in U.S. Patent No. 4,885,933. […] The time required for the pendulum to pass between two photocells of given distance apart is measured and the pendulum rebound height, hr is automatically calculated. […]

[10] = 200 mg single dose (Group A), two 100 mg immediate release tablets (ZOLOFT), oral, fasted, mean
[11] = 200 mg bolus dose group, individual subjects
[12] = GROUP A (Bolus Dose) 200 mg, summed over 24 hr post-dose
[13] = GROUP B (16 Divided Doses) 12.5 mg hourly, summed over 24 hr post-dose
[14] = 200 mg single dose, two 100 mg immediate release tablets (ZOLOFT), oral, four subjects with emesis not included
[15] = GROUP B (8 Divided Doses) 25 mg hourly
[16] = GROUP A, Ileocecal Infusion, 200 mg as 2 mg/ml solution
[17] = GROUP A, Stomach Infusion, 200 mg as 2 mg/ml solution
[18] = GROUP B, Colonic Infusion (transverse colon), 200 mg as 2 mg/ml solution
[19] = GROUP B, Duodenal Infusion, 200 mg as 2 mg/ml solution

Molecule: CN[C@H]1CC[C@@H](c2ccc(Cl)c(Cl)c2)c2ccccc21 [sertraline, (1S-cis)-4-(3,4-dichlorophenyl)-1,2,3,4-tetrahydro-N-methyl-1-naphthalenamine]
- AUC(0-t) [1, 10]: 1650 ng·h/mL
- CMAX [1, 10]: 74 ng/mL
- TMAX [1, 10]: 6 h
- AUC(0-t) ([1]; po): 1230 ng·h/mL
- subjects with emesis ([2]; 200 mg bolus dose group (15 subjects)): Three
- time of emesis [2, 11]: 4.25 h and 11.2 h and 7.6 h
- emetic episodes ([2]; 15 hr divided dose regimen (16 x 12.5 mg)): no emetic episodes
- Mean cumulative score: Abdominal Cramping [2, 12]: 3.1
- Mean cumulative score: Diarrhea [2, 12]: 3.9
- Mean cumulative score: Nausea [2, 12]: 17.5
- Mean cumulative score: Regurgitation [2, 12]: 4.0
- Mean cumulative score: Tremor [2, 12]: 7.9
- Mean cumulative score: Urgency to Defecate [2, 12]: 3.1
- Mean cumulative score: Abdominal Pain ([2]; GROUP A (Bolus Dose) 200 mg, visual analogue scores summed over 24 hr post-dose): 2.7
- Mean cumulative score: Abdominal Cramping [2, 13]: 0.1
- Mean cumulative score: Abdominal Pain [2, 13]: 0.1
- Mean cumulative score: Diarrhea [2, 13]: 0.2
- Mean cumulative score: Nausea [2, 13]: 2.6
- Mean cumulative score: Regurgitation [2, 13]: 0.3
- Mean cumulative score: Tremor [2, 13]: 1.7
- CMAX [3, 14]: 75 ng/mL
- TMAX [3, 14]: 5.4 h
- AUC(0-t) ([3]; 25 mg per hr for 7 hr, eight 25 mg doses as solution): 1440 ng·h/mL
- AUC(0-t) ([3]; 200 mg single dose, two 100 mg immediate release tablets (ZOLOFT), four subjects with emesis not included): 1740 ng·h/mL
- time of emesis [4, 11]: 2.6 hr and 2.8 hr (2×) and 3.8 hr
- emetic events ([4]; 7 hr divided dose group, 8 x 25 mg (n=16)): 1
- time of emesis ([4]; 7 hr divided dose regimen, one subject): 12.6 h
- Mean cumulative score: Dizziness ([4]; GROUP A (Bolus Dose) 200 mg): 10.4
- Mean cumulative score: Regurgitation ([4]; GROUP A (Bolus Dose) 200 mg): 3.9
- Mean cumulative score: Tremor ([4]; GROUP A (Bolus Dose) 200 mg): 8.9
- Mean cumulative score: Dizziness [4, 15]: 4.8
- Mean cumulative score: Regurgitation [4, 15]: 0.1
- Mean cumulative score: Tremor [4, 15]: 2.7
- CMAX [5, 16]: 27.3 ng/mL
- TMAX [5, 16]: 5.0 h
- TMAX ([5]; GROUP A, Oral Tablet, 200 mg as two 100 mg tablets): 7.0 h
- CMAX ([5]; GROUP A, Oral Tablet, 200 mg as two 100 mg tablets, 6 volunteers): 39.9 ng/mL
- CMAX [5, 17]: 35.6 ng/mL
- TMAX [5, 17]: 7.0 h
- CMAX [5, 18]: 10.9 ng/mL
- TMAX [5, 18]: 4.4 h
- CMAX [5, 19]: 48.8 ng/mL
- TMAX [5, 19]: 3.7 h
- TMAX ([5]; GROUP B, Oral Tablet, 200 mg as two 100 mg tablets): 6.7 h
- CMAX ([5]; GROUP B, Oral Tablet, 200 mg as two 100 mg tablets, 6 volunteers): 44.7 ng/mL
- AUC(0-t) [5, 16]: 727 ng·h/mL
- AUC(0-t) [5, 17]: 923 ng·h/mL
- AUC(0-t) [5, 18]: 179 ng·h/mL
- AUC(0-t) [5, 19]: 1270 ng·h/mL
- AUC(0-t) ([5]; po, GROUP A, Oral Tablet, 200 mg as two 100 mg tablets): 1170 ng·h/mL
- AUC(0-t) ([5]; po, GROUP B, Oral Tablet, 200 mg as two 100 mg tablets): 1150 ng·h/mL
- AUC as percent of the AUC observed after dosing with oral tablets ([5]; infusion into the duodenal region): 110%
- AUC as percent of the AUC observed after dosing with oral tablets ([5]; infusion into the ileocecal region of the small intestine): 62%
- AUC as percent of the AUC observed after dosing with oral tablets ([5]; infusion into the stomach): 79%
- AUC as percent of the AUC observed after dosing with oral tablets ([5]; infusion into the transverse colon): 16%
- time at which the maximum diarrhea score was reached ([6]; Study 1, 200 mg bolus dose, post-dose): 3 h
- time of emesis ([6]; Study II, 200 mg dose group, individual subjects): 2.6 hr and 2.8 hr (2×) and 3.8 hr

Molecule: CN[C@H]1CC[C@@H](c2ccc(Cl)c(Cl)c2)c2ccccc21.N[C@@H](CC(=O)O)C(=O)O [sertraline L-aspartate]
- hygroscopicity [7]: not hygroscopic
- purity of samples after stability testing [8]: greater than 99%

Molecule: sertraline acetate
- hygroscopicity [7]: not hygroscopic
- ductility (assessment in words) [9]: high ductility
- elastic modulus (assessment in words) [9]: relatively low elastic modulus
- purity of samples after stability testing [8]: greater than 99%

Source: patent publication EP1736150A2 (Pfizer, Inc., priority 1997, dated 1999)
